# In patent publication US11685762B2, “Aqueous suspension compositions, formulations, and water dispersible dry compositions comprising 16alpha-bromo-3beta-hydroxy-5alpha-androstan-17-ketone and hydrates, derivatives, and analogs thereof” (SD Chem, Inc., priority 2019, dated 2023):
# Marks after values point to notes of the source that are not given here.
# Tests used:
# [1] = system: ICR mice with colitis induced by DSS; test: DSS induced mouse colitis model; format: in vivo; conditions: for White blood cell count: Mean ± SD, n = 12; for Macrohage cell count: abdominal macrophages
# Procedure: Experimental animals: 72 ICR mice, male and female, 25-29 g body weight before starting the experiment.
# Subgrouping: The experimental animals are divided into 6 groups at random, 12 mice in each group: physiological saline group, high dose group (40 mg/kg), moderate dose group (20 mg/kg), low dose group (10 mg/kg) of BEA obtained in Formulation/Composition 1 of the present invention, Dexamethasone (0.1 mg/kg), DSS model group.
# Model replication: The experimental mice are […] 3% DSS and fed with water routinely for 7 days, the colitis model is duplicated.
# Administration of drug: the mice are injected with the test drug on the same day when DSS are injected.
# Experimental animal management: the general physical condition, loose stools, and bloody stools are observed every day.
# The fecal occult blood is tested 3 days after injected with drug. The blood tests are done on day 7. The macrophages are counted and their IL-6 and TNF-alpha are determined. Their inflammation and ulcer level are observed. The colon content is taken to smear, stain and then determined the G+/G−. The thymus, spleen, liver are taken to weight and calculate the organ index. Sections of colon are sent for pathological examination.
# [2] = system: BALB/c male mice sensitized and challenged with OVA; test: Mouse asthma model (OVA challenge, bronchioalveolar lavage cell count); format: in vivo; conditions: 0.2 mg/kg per day
# Procedure: In this experiment, the BEA formulation is prepared based present invention formulation (Formulation of Composition 1 in Example 1).
# 18 BALB/c male mice, 8 weeks old are sensitized with two intraperitoneal (IP) administrations, 5 days apart, of 10 μg chicken egg ovalbumin (OVA, grade V; Sigma) emulsified in 1 mg of aluminum hydroxide (Thermo Scientific, Rockford, Ill., USA) in a total volume of 100 μl. Then, after one month mice are challenged via intratracheal (IT) administration of 0.75% OVA. BEA formulation is administered at 0.2 mg/kg dose in an injection volume of 0.1 mL in two different routes of administration (intratracheal and subcutaneous (SC)), one hour after the OVA challenge and one dose per day for up to 7 days. Then, animals are euthanized by exsanguination under pentobarbital anesthesia. The bronchioalveolar lavage (BAL) of the mice are used to determine the total counts of inflammatory cells. Control mice receive saline solution intraperitoneally (IP). All experiments are performed in accordance with INCMN Mexico City regulations. Two independent experiments are performed.
# Taenia crassiceps = conditions: mice, administration prior to infection with cysticerci; cited from earlier work
# Entamoeba histolytica = conditions: hamsters; cited from earlier work
# Vk*MYC Mice = test: Anti-myeloma activity in Vk*MYC mice (M-Spike); conditions: 15 mg/kg/day
# Procedure: 3 Vk*MYC Mice are evaluated. […] The M-Spike value are assessed at day 7 and 14 respectively. […] The M-Spike value are assessed at day 7, 14 and 21 respectively.
compound,measurement,setting,value
"C[C@]12CC[C@H](O)C[C@@H]1CC[C@@H]1[C@@H]2CC[C@]2(C)C(=O)[C@H](Br)C[C@@H]12 [BEA, 16alpha-bromo-3beta-hydroxy-5alpha-androstan-17-ketone]",Final weight,[1]; BEA 10 mg/kg,26.5 ± 2.6 g
same,IL-6/TNF-alpha,[1]; BEA 10 mg/kg,9.5 ± 7.9
same,IL-6 level,[1]; BEA 10 mg/kg,551.7 ± 391.4 pg/mL
same,Spleen index,[1]; BEA 10 mg/kg,5.7 ± 2.0 mg/g
same,TNFa level,[1]; BEA 10 mg/kg,49.5 ± 23.2 pg/mL
same,The length of colon,[1]; BEA 10 mg/kg,10.4 ± 1.0 cm
same,Thymus index,[1]; BEA 10 mg/kg,2.7 ± 1.0 mg/g
same,Weight before fasting,[1]; BEA 10 mg/kg,28.2 ± 2.8 g
same,number of animals with bloody stools,[1]; BEA 10 mg/kg,5/12
same,number of animals with fecal occult blood (3rd day),[1]; BEA 10 mg/kg,7/12
same,White blood cell count,[1]; BEA 10 mg/kg,5.9 ± 1.4 X10^9
same,Macrohage cell count,[1]; BEA 10 mg/kg,28.3 ± 8.9 X10^5
same,Final weight,[1]; BEA 20 mg/kg,25.7 ± 1.8 g
same,IL-6/TNF-alpha,[1]; BEA 20 mg/kg,16.8 ± 8.0
same,IL-6 level,[1]; BEA 20 mg/kg,589.1 ± 227.1 pg/mL
same,Spleen index,[1]; BEA 20 mg/kg,5.9 ± 1.0 mg/g
same,TNFa level,[1]; BEA 20 mg/kg,49.1 ± 37.0 pg/mL
same,The length of colon,[1]; BEA 20 mg/kg,10.5 ± 0.9 cm
same,Thymus index,[1]; BEA 20 mg/kg,2.9 ± 0.7 mg/g
same,Weight before fasting,[1]; BEA 20 mg/kg,27.7 ± 2.5 g
same,number of animals with bloody stools,[1]; BEA 20 mg/kg,5/12
same,number of animals with fecal occult blood (3rd day),[1]; BEA 20 mg/kg,7/12
same,White blood cell count,[1]; BEA 20 mg/kg,5.2 ± 1.5# X10^9
same,Macrohage cell count,[1]; BEA 20 mg/kg,32.3 ± 1.3# X10^5
same,Final weight,[1]; BEA 40 mg/kg,25.6 ± 1.7 g
same,IL-6/TNF-alpha,[1]; BEA 40 mg/kg,12.7 ± 8.6
same,IL-6 level,[1]; BEA 40 mg/kg,370.8 ± 219.1 pg/mL
same,Spleen index,[1]; BEA 40 mg/kg,6.4 ± 1.2 mg/g
same,TNFa level,[1]; BEA 40 mg/kg,31.4 ± 15.1 pg/mL
same,The length of colon,[1]; BEA 40 mg/kg,9.2 ± 0.8 cm
same,Thymus index,[1]; BEA 40 mg/kg,3.1 ± 0.7 mg/g
same,Weight before fasting,[1]; BEA 40 mg/kg,27.6 ± 1.7 g
same,number of animals with bloody stools,[1]; BEA 40 mg/kg,6/12
same,number of animals with fecal occult blood (3rd day),[1]; BEA 40 mg/kg,6/12
same,White blood cell count,[1]; BEA 40 mg/kg,5.9 ± 2.9 X10^9
same,Macrohage cell count,[1]; BEA 40 mg/kg,24.6 ± 3.4 X10^5
same,Inflammatory Cell Number in bronchioalveolar lavage,"[2]; IT, Day 3",4.61 × 10^4
same,Inflammatory Cell Number in bronchioalveolar lavage,"[2]; IT, Day 7",5.99 × 10^4
same,Inflammatory Cell Number in bronchioalveolar lavage,"[2]; SC, Day 3",4.07 × 10^4
same,Inflammatory Cell Number in bronchioalveolar lavage,"[2]; SC, Day 7",1.06 × 10^5
same,reduction of parasite load compared with controls,Taenia crassiceps,50%
same,reduction on the development of amoebic liver abscesses,Entamoeba histolytica,20%
same,reduction of M-Spike,Vk*MYC Mice,40%
"C[C@@H]1C[C@H]2[C@@H]3CCC4=CC(=O)C=C[C@]4(C)[C@@]3(F)[C@@H](O)C[C@]2(C)[C@@]1(O)C(=O)CO [Dex, Dexamethasone, reference compound]",IL-6/TNF-alpha,[1]; Dexamethasone 0.1 mg/kg,15.8 ± 8.7
same,IL-6 level,[1]; Dexamethasone 0.1 mg/kg,791.7 ± 234.3 pg/mL
same,Spleen index,[1]; Dexamethasone 0.1 mg/kg,7.9 ± 1.7 mg/g
same,TNFa level,[1]; Dexamethasone 0.1 mg/kg,92.4 ± 42.1 pg/mL
same,The length of colon,[1]; Dexamethasone 0.1 mg/kg,9.9 ± 1.2 cm
same,Thymus index,[1]; Dexamethasone 0.1 mg/kg,0.9 ± 0.4 mg/g
same,number of animals with bloody stools,[1]; Dexamethasone 0.1 mg/kg,8/12
same,number of animals with fecal occult blood (3rd day),[1]; Dexamethasone 0.1 mg/kg,9/12
same,White blood cell count,[1]; Dexamethasone 0.1 mg/kg,5.0 ± 2.6# X10^9
same,Macrohage cell count,[1]; Dexamethasone 0.1 mg/kg,24.4 ± 5.7 X10^5
